In patent publication US20240197712A1, “TGF-BETA INHIBITION FOR IMMUNODEFICIENCY VIRUS REACTIVATION FROM LATENCY, ENHANCEMENT OF IMMUNODEFICIENCY VIRUS-SPECIFIC RESPONSES AND IMMUNODEFICIENCY VIRUS CURE” (Northwestern University, priority 2022, published 2024):

How the values were obtained:
Tregs and Tfh cells = assay: Circulating Treg and Tfh frequencies by flow cytometry; assay type: in vivo, rhesus macaques
Experimental: Peripheral blood mononuclear cells (PBMCs) collected from 8 macaques at 7 time points spanning Cycle 1 to Cycle 4 (refer to Table 5) were employed for high-parameter flow cytometry staining. Cells from before and after cycle 1 and at the end of cycle 3 were used for Tfh/Treg assay. In both cases, cell fixation and permeabilization for intracellular staining were carried out using the FoxP3 Staining Buffer set (Thermo Fisher Scientific, Carlsbad, CA). The high-dimensional panel consisted of antibodies outlined in Table 4, catering to requirements for surface and intracellular staining, as well as viability assessment. Each antibody was individually titrated to ensure optimal staining conditions. Data acquisition was performed using the FACSymphony A5.2 Spectral Analyzer. Following data collection, spectral compensation was implemented utilizing FlowJo™ v10.8 Software (BD Life Sciences). 60,000 live singlet lymphocytes from each of samples was downsampled to prevent disproportionate representation by samples with higher cell counts, ensuring balanced subsequent analysis. To mitigate batch effects, we utilized the swiftReg Neighbor-Dependent Cluster Registration (NDCR) method available within the SWIFT package(112). This method effectively addresses batch variations while preserving the inherent biological diversity. […] Furthermore, we implemented the Peak Extraction and Cleaning Oriented Quality Control (PeacoQC) procedure (138) in FlowJo™ v10.8 to eliminate low-quality events arising from potential issues like clogs, speed fluctuations, and slow sample uptake. FlowSOM FlowJo plugin was employed for automated cell population identification, preceded by the utilization of Phenograph to obtain optimal cluster numbers for dimensional reduction, for the merged data of All Time points and BC1 vs AC4 merged data respectively. The Supplementary FIG. 29A heatmap illustrates the median fluorescence intensity (MFI) values for all markers across all clusters. […]

ACH-2 cells = assay: PMA-induced HIV reactivation in ACH-2 cells, intracellular p24 staining; assay type: cell-based
Experimental: ACH2 cells and U1 cells were obtained through the NIH HIV Reagent Program, Division of AIDS, NIAID, NIH (contributed by Dr. Thomas Folks). […] In the HIV latency reactivation conditions, PMA (Phorbol 12-myristate 13-acetate, SigmaAldrich) was added at 100 ng/ml together with galunisertib or TGF-β1. After 18 hrs, cells were stained intracellularly for p24 using the KC57 antibody (NIH HIV Reagent Program) as previously described (74).

[1] = Galunisertib plasma pharmacokinetics by LCMS; assay type: in vivo, rhesus macaques
Experimental: Eight naïve macaques (FIG. 9) were used to collect plasma and PBMC for PK/PD studies. 4 macaques received galunisertib (2.5 mg/kg, n=2 or 5 mg/kg, n=2) once and blood was collected at 1 hr, 3 hr and 6 hrs, 24 hrs and 48 hrs. 4 macaques received galunisertib (2.5 mg/kg, n=2 or 5 mg/kg, n=2) twice daily for 9 days and samples were collected 1 hr, 3 hr and 8 hrs after administration on day 1 and on day 9 right before and 1 hr and 3 and 6 hrs after the last administration. Plasma concentrations of galunisertib were measured by IMSERC (Integrated Molecular Structure Education and Research Center) utilizing liquid chromatography mass spectrometry (Shimadzu Kyoto, Japan ultra-high performance liquid chromatography—UHPLC—system and SCIEX Framingham, MA Qtrap 6500+ triple quadrupole mass spectrometer). All standard, quality controls (QC) and experimental samples were prepared and ran in duplicate using 20 μL of plasma (spiked with galunisertib if a standard or QC) adding 15 μL of 8% phosphoric acid solution, 200 μL of acetonitrile (to crash plasma proteins) spiked with tramadol as an internal standard. The standard curve was prepared as a 10-point curve from 1.0 to 1,000 ng/ml with three QCs. […] All samples and standards were processed in duplicate with the average area under the curve (AUC) being used for quantitation reporting. […] The resulting limit of quantitation (LOQ) was 1.0 ng/ml.

SIVmac251 or SIVmac239 = assay: Tissue cell-associated vRNA/vDNA, colorectal biopsies and LN FNA; assay type: in vivo, rhesus macaques
Experimental: Blood was collected in EDTA tubes and plasma was separated by density gradient centrifugation and used for the determination of plasma VL by SIVgag qRT-PCR at NIRC or at Leidos (Quantitative Molecular Diagnostics Core, AIDS and Cancer Virus Program Frederick National Laboratory). Tissue VL from snap frozen colorectal biopsies and LN FNA were performed at Leidos (A14X004, A14X005 and A14X013) as described in (78) or, for the remaining macaques and from PBMC of all macaques they were performed as described in (77).

U1 cells = assay: DC-driven HIV reactivation from U1 cells (moDC co-culture); assay type: cell-based; conditions: moDCs treated with TGF-β1 10 ng/ml for last 2 days, with or without galunisertib; 18 hrs co-culture
Experimental: CD14^+ cells were isolated from PBMC using the Miltenyi CD14^+ beads. Monocyte-derived DCs (moDCs) were obtained from CD14+ cells cultured in GM-CSF and IL-4 as previously described (55). At day 4 of moDCs differentiation, TGF-β1 (10 ng/ml R&D systems) was added to the moDCs to generate the TGF-β-DCs (or both TGF-β1 and galunisertib). At day 6, 2 days after TGF-1 addition, moDCs were phenotyped (in 3 donors; See Table 2 for antibodies list) and co-cultured with eFluor670 (eBioscience)-labelled U1 at 3:1 U1:DC ratio (5 donors). After 18 hrs of co-culture, cells were stained for p24 intracellularly as described above.

HIV-Bal = assay: In vitro HIV-1 replication in SupT1 cells and PHA-PBMC (p24 ELISA); assay type: cell-based; conditions: SupT1 cells and PBMC from healthy donors, different concentrations of galunisertib
Experimental: For control experiments of the impact of galunisertib on HIV infection of SupT1 cells and PBMC, SupT1 cells and PHA-activated PBMC were cultured respectively at 1 and 2 millions/ml in R10 (in presence of 20 U/ml of IL-2 for the PBMC) and infected with 50 TCID50/10^6 cells of HIV-Bal (0.01 MOI). HIV replication was monitored by p24 ELISA.

SMILES: Cc1cccc(-c2nn3c(c2-c2ccnc4ccc(C(N)=O)cc24)CCC3)n1 [galunisertib, Galunisertib]
- circulating Tfh (CXCR5+PD1+) within total and central memory CD4+ T cells (Tregs and Tfh cells; end of treatment): lower
- frequency of CD4+ Tregs (CD25high FoxP3+) and CD8+ Tregs (Tregs and Tfh cells; remained higher until end of 3rd cycle): increased after the first cycle
- expression of CD39 on total and central memory CD4+ T cells (Tregs and Tfh cells; rhesus monkey, in vivo): lower
- frequency of p24-gag+ cells in TGF-β1-treated cultures (ACH-2 cells; ACH-2 cells, TGF-β1 + galunisertib 1 μM): restore frequency of p24-gag+ cells
- frequency of p24-gag+ cells versus PMA-stimulated cultures (ACH-2 cells; ACH-2 cells, galunisertib in absence of exogenous TGF-β1, medium with FBS): increase it above PMA-stimulated cultures
- effect on p24+ cells in X-Vivo 15 medium without FBS (ACH-2 cells; control experiments, U1 and ACH-2, no FBS): absent
- concentration in blood of macaques lower than average concentration in human plasma after similar dosing ([1]; macaque vs human plasma): at least 10 fold
- PK in rhesus macaques compared with humans ([1]; naïve animals, oral 2.5 or 5 mg/kg): substantially lower than in humans
- ratio CA-RNA/DNA (SIVmac251 or SIVmac239; at least 2 macaques (A14X027 and A14X064)): increased substantially
- increase in cell associated vRNA (CA-RNA) (SIVmac251 or SIVmac239; colorectal biopsies and LN FNA, before vs after treatment): 1 to 3 log
- frequency of p24-gag+ U1 cells in cocultures with TGF-β1-treated DCs versus untreated DCs (U1 cells): blocked
- HIV-1 growth curves (HIV-Bal): no impact
